For 30 compounds, EC50 results are on record in PubChem BioAssay AID493060 (The Scripps Research Institute Molecular Screening Center, 2011).

Calls of active or inactive are those of the source. No rule for the calls is given here.

This assay has as its target Aryl hydrocarbon receptor (Homo sapiens) (UniProt P35869). The experiment in a line: AHR activator potency, dose response, cell-based, luminescence, luciferase reporter, human (AID 493060). To be noted: Human cell line AHR-responsive luciferase reporter.

Chain of Aryl hydrocarbon receptor (Homo sapiens) (P35869 whole entry, looked up): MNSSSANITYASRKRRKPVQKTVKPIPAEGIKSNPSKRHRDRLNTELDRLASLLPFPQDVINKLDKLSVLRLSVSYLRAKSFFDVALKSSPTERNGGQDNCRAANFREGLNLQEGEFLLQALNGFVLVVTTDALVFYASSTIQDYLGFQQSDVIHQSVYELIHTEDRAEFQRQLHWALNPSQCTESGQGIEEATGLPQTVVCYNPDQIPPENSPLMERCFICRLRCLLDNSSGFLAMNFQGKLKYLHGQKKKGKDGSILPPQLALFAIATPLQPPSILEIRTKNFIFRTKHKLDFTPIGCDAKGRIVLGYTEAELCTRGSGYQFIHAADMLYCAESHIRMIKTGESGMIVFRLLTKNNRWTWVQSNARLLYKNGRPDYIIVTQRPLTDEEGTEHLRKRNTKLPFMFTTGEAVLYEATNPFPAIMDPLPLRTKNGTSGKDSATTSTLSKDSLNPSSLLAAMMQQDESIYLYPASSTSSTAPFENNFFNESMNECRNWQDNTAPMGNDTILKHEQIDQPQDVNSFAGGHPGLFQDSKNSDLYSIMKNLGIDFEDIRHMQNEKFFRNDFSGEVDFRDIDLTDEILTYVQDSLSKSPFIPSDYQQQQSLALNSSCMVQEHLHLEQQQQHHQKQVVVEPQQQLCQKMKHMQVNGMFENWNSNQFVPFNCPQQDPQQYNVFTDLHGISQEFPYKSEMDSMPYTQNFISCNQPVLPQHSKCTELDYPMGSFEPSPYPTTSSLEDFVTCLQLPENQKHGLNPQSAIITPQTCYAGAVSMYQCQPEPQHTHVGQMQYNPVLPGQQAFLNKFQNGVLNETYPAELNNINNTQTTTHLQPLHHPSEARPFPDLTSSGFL

Regarding `Cc1ccc(-c2cc(-c3cccs3)[nH]n2)c(O)c1`, the EC50 was 853 nM. Regarding `O=C(CN1CCOCC1)Nc1nc2ccc([N+](=O)[O-])cc2s1`, the EC50 was 6250 nM.

For the compound `CN(C)c1nc(N)nc(-c2nc3ccccc3s2)n1`, the EC50 is 3330 nM.

Consider `Cc1ccc(Nc2ncccc2C(N)=O)cc1`, for which the EC50 was 1130 nM. `CCC(=O)Nc1cc(OC)c(NC(=O)c2ccccc2)cc1OC`: the EC50 was 2490 nM. Turning to `CCOc1ccc(-c2cc(C)n3nc(C(N)=O)cc3n2)cc1`, the EC50 was 1340 nM. On to `COc1ccccc1NC(=O)Nc1cccnc1`, for which the EC50 was 1470 nM. In the case of `O=C(Nc1ccon1)c1cnc2sccn2c1=O`, the EC50 result was “inactive”.

In the case of `CC(=O)c1ccc(NC(=O)c2cc(Cl)nc3ccccc23)cc1`, the concentration giving a half-maximal response (EC50) was 968 nM. As to `COc1cc2ccccc2cc1C(=O)Nc1ccc(C)cc1`, the EC50 was 747 nM. On to `Cn1c(N)c(C(=O)Nc2ccccc2F)sc1=S`, for which the EC50 is 767 nM. As for `CN1CCN(CCCNC(=O)c2cc3c(-c4ccc(Cl)cc4)nn(C)c3s2)CC1`, the EC50 was 282 nM. As to `Cc1c(-c2ccn[nH]2)cc(NC(=O)c2ccc(Cl)cc2)c(=O)n1N`, the EC50 was 513 nM. For the compound `Cn1c(C(=O)N2CCC(C(N)=O)CC2)cc2cc(Cl)ccc21`, the concentration giving a half-maximal response (EC50) was 260 nM.

Regarding `COc1ccc(Cl)cc1C(=O)Nc1ccc(N(C)C(C)=O)cc1`, the EC50 was 2410 nM. `CCOc1ccccc1NC(=O)c1ccc2nccnc2c1`: the EC50 is 2840 nM.

Turning to `Cc1ccccc1-c1nc(-c2cccnc2)no1`, the EC50 is 1330 nM. For `CCOc1ccc(NC(=O)c2cc3ccccc3cc2OC)cc1`, the EC50 was 1780 nM.

For `COc1ccc(C(=O)Nc2cc(OC)c(NC(=O)c3ccco3)cc2OC)cc1`, the concentration giving a half-maximal response (EC50) was 1620 nM. With `COc1cc2c(cc1NC(=O)Nc1ccc(C)cc1)oc1ccccc12` the figure was 889 nM; with `COc1ccccc1NC(=O)c1ccc2c(c1)nnn2C`, 139 nM.

As to `COC(=O)c1ccccc1NC(=O)Cn1ccnc1`, the EC50 was 2570 nM. As for `CCOC(=O)Cc1cc(-c2ccc(O)cc2)nc2ccc3ccccc3c12`, the EC50 was 1080 nM. Turning to `Cc1cc(Nc2ccc(Br)cc2)n2nc(C)nc2n1`, the EC50 was 217 nM. For `Cc1csc(SCC(=O)Nc2ccc(Cl)cn2)n1` the value was 683 nM; for `COc1ccc(NC(=O)c2cccc3c(Br)cccc23)cc1`, 1860 nM. `O=C1c2ccccc2-c2nc3ccccc3nc21`: the EC50 is 3240 nM. For `CCCC(=O)Nc1nn(C)c2nc3cc(C)ccc3cc12`, the EC50 was 250 nM. Regarding `Cc1nc(N)nc(Nc2ccc(Cl)cc2)c1Br`, the EC50 was 1400 nM. With `COc1ccccc1C(=O)Nc1ccc(N2CCCCC2)cc1` the figure was 2980 nM.

By EC50 is commonly meant the concentration needed to bring the measured effect to its halfway point.
